Laboratory results from patent US9770026B2, “Substituted pyrimidine compound and uses thereof” (Shenyang Sinochem Agrochemicals R&D Co., Ltd., priority 2012, dated 2017).

tested on: corn rust; experiment: protectant activity in vivo against corn rust; conditions: 100 ppm

SMILES	protectant activity against corn rust in vivo
CCOC(=O)c1ccc(Oc2ccc(CCNc3ncnc(C)c3Cl)cc2)nc1 [Compound I-35]	100%

same assay, conditions: 400 ppm

SMILES	protectant activity against corn rust in vivo
CCOC(=O)c1ccc(Oc2ccc(CCNc3ncnc(C)c3Cl)cc2)nc1 [Compound I-35]	100%
Cc1ncnc(NCCc2ccc(Oc3ncc(C(F)(F)F)cc3Cl)cc2)c1Br [Compound I-1878]	100%
FC(F)c1ncnc(NCCc2ccc(Oc3ncc(Cl)cc3Cl)cc2)c1Cl [Compound I-2555]	100%
Cc1ncnc(NCCc2ccc(Oc3cc(Cl)ccc3Cl)nc2)c1Cl [III-83]	100%
CCc1ncnc(NCCc2ccc(Oc3cccc(Cl)c3)nc2)c1Cl [III-186]	100%
Cc1nc(Cl)c(Cl)c(NCCc2ccc(Oc3ccccc3)nc2)n1 [III-2521]	100%
Cc1nc(Cl)c(Cl)c(NCCc2ccc(Oc3cccc(Cl)c3)nc2)n1 [III-2526]	100%

same assay, conditions: Zea mays, 168 h, read-out: control effect against corn rust (%), 6.25 mg/L; protectant activity

SMILES	pest or weed control at 6.25 µg/mL
FC(F)(F)c1ccc(Oc2ccc(CNc3ncnc4ccccc34)cc2)nc1 [CK31, reference compound]	0%

same assay, conditions: Zea mays, 168 h, read-out: control effect against corn rust (%), 25 mg/L; protectant activity

SMILES	pest or weed control at 25 µg/mL
FC(F)(F)c1ccc(Oc2ccc(CNc3ncnc4ccccc34)cc2)nc1 [CK31, reference compound]	0%

same assay, conditions: Zea mays, 168 h, read-out: control effect against corn rust (%), 100 mg/L; protectant activity

SMILES	pest or weed control at 100 µg/mL
FC(F)(F)c1ccc(Oc2ccc(CNc3ncnc4ccccc34)cc2)nc1 [CK31, reference compound]	0%

same assay, conditions: Zea mays, 168 h, read-out: control effect against corn rust (%), 400 mg/L; protectant activity

SMILES	pest or weed control at 400 µg/mL
FC(F)(F)c1ccc(Oc2ccc(CNc3ncnc4ccccc34)cc2)nc1 [CK31, reference compound]	0%

same assay, conditions: Zea mays, 168 h, read-out: protectant activity against corn rust in vivo, 400 ppm

SMILES	pest or weed control at 400 ppm
CCc1nc(C)nc(NCCc2ccc(Oc3nc(Cl)c(Cl)cc3Cl)cc2)c1Cl [Compound I-6790]	100%

tested on: Green peach aphids (Myzus Persicae Sulzer); experiment: bioactivity test against green peach aphid, airbrush foliar spray; format: in vivo; conditions: 10 ppm, death rate after 48 hrs
Procedure: Compounds were dissolved in mixed solvent (acetone:methanol=1:1), and diluted to required concentration with water containing 0.1% of tween 80.
Diamond back moth, armyworm, peach aphid and carmine spider mite were used as targets and the method of spraying by airbrush was used for determination of insecticidal biassays.
Method: Filter papers were put in culture dishes (Diameter=6 cm), and water was dripped on filter papers for preserving moisture. Green peach aphids (Myzus Persicae Sulzer) were maintained on cabbage. Leaves (Diameter=3 cm) of approximately 15-30 aphids were put in the culture dishes. Bioactivity tests were used the method of Airbrush Foliar Spray, pressure=10 psi (0.7 kg/cm2), spray volume=0.5 mL. The studies were conducted at […] 25±1 C in incubator cabinets with 60±5% RH. Survey the survival aphids after 48 hrs and calculate the death rates.

SMILES	control (test results against green peach aphid)
CCOC(=O)c1ccc(Oc2ccc(CCNc3ncnc(C)c3Cl)cc2)nc1 [Compound I-35]	100%
Cc1ncnc(NCCc2ccc(Oc3ncc(C(F)(F)F)cc3Cl)cc2)c1Br [Compound I-1878]	100%

same assay, conditions: 100 ppm, death rate after 48 hrs

SMILES	control (test results against green peach aphid)
CCOC(=O)c1ccc(Oc2ccc(CCNc3ncnc(C)c3Cl)cc2)nc1 [Compound I-35]	100%
Cc1ncnc(NCCc2ccc(Oc3ncc(C(F)(F)F)cc3Cl)cc2)c1Br [Compound I-1878]	100%
FC(F)c1ncnc(NCCc2ccc(Oc3ncc(Cl)cc3Cl)cc2)c1Cl [Compound I-2555]	100%
CCc1ncnc(NCCc2ccc(Oc3cccc(Cl)c3)nc2)c1Cl [III-186]	100%

same assay, conditions: 600 ppm, death rate after 48 hrs

SMILES	control (test results against green peach aphid)
CCOC(=O)c1ccc(Oc2ccc(CCNc3ncnc(C)c3Cl)cc2)nc1 [Compound I-35]	100%
Cc1ncnc(NCCc2ccc(Oc3ncc(C(F)(F)F)cc3Cl)cc2)c1Br [Compound I-1878]	100%
FC(F)c1ncnc(NCCc2ccc(Oc3ncc(Cl)cc3Cl)cc2)c1Cl [Compound I-2555]	100%
Cc1ncnc(NCCc2ccc(Oc3cc(Cl)ccc3Cl)nc2)c1Cl [III-83]	100%
CCc1ncnc(NCCc2ccc(Oc3cccc(Cl)c3)nc2)c1Cl [III-186]	100%

same assay, conditions: Myzus persicae, foliar, 48 h, 600 ppm, death rate after 48 hrs

SMILES	pest or weed control at 600 ppm
CCc1nc(C)nc(NCCc2ccc(Oc3nc(Cl)c(Cl)cc3Cl)cc2)c1Cl [Compound I-6790]	100%

tested on: wheat powdery mildew; experiment: protectant activity in vivo against wheat powdery mildew; conditions: 25 ppm

SMILES	protectant activity against wheat powdery mildew in vivo
FC(F)c1ncnc(NCCc2ccc(Oc3ncc(Cl)cc3Cl)cc2)c1Cl [Compound I-2555]	100%

same assay, conditions: 100 ppm

SMILES	protectant activity against wheat powdery mildew in vivo
FC(F)c1ncnc(NCCc2ccc(Oc3ncc(Cl)cc3Cl)cc2)c1Cl [Compound I-2555]	100%

same assay, conditions: 400 ppm

SMILES	protectant activity against wheat powdery mildew in vivo
CCOC(=O)c1ccc(Oc2ccc(CCNc3ncnc(C)c3Cl)cc2)nc1 [Compound I-35]	100%
FC(F)c1ncnc(NCCc2ccc(Oc3ncc(Cl)cc3Cl)cc2)c1Cl [Compound I-2555]	100%
Cc1ncnc(NCCc2ccc(Oc3cc(Cl)ccc3Cl)nc2)c1Cl [III-83]	100%
CCc1ncnc(NCCc2ccc(Oc3cccc(Cl)c3)nc2)c1Cl [III-186]	100%

same assay, conditions: Triticum aestivum, 168 h, read-out: control effect against wheat powdery mildew (%), 6.25 mg/L; protectant activity

SMILES	pest or weed control at 6.25 µg/mL
FC(F)(F)c1ccc(Oc2ccc(CNc3ncnc4ccccc34)cc2)nc1 [CK31, reference compound]	0%

same assay, conditions: Triticum aestivum, 168 h, read-out: control effect against wheat powdery mildew (%), 25 mg/L; protectant activity

SMILES	pest or weed control at 25 µg/mL
FC(F)(F)c1ccc(Oc2ccc(CNc3ncnc4ccccc34)cc2)nc1 [CK31, reference compound]	0%

same assay, conditions: Triticum aestivum, 168 h, read-out: control effect against wheat powdery mildew (%), 100 mg/L; protectant activity

SMILES	pest or weed control at 100 µg/mL
FC(F)(F)c1ccc(Oc2ccc(CNc3ncnc4ccccc34)cc2)nc1 [CK31, reference compound]	0%

same assay, conditions: Triticum aestivum, 168 h, read-out: control effect against wheat powdery mildew (%), 400 mg/L; protectant activity

SMILES	pest or weed control at 400 µg/mL
FC(F)(F)c1ccc(Oc2ccc(CNc3ncnc4ccccc34)cc2)nc1 [CK31, reference compound]	0%

same assay, conditions: Triticum aestivum, 168 h, read-out: protectant activity against wheat powdery mildew in vivo, 400 ppm

SMILES	pest or weed control at 400 ppm
CCc1nc(C)nc(NCCc2ccc(Oc3nc(Cl)c(Cl)cc3Cl)cc2)c1Cl [Compound I-6790]	100%

tested on: cucumber downy mildew; experiment: protectant activity in vivo against cucumber downy mildew; conditions: 12.5 mg/L; protectant activity

SMILES	control effect against cucumber downy mildew (%)
Cc1nc(Cl)c(Cl)c(NCCc2ccc(Oc3ccccc3)nc2)n1 [III-2521]	100%

same assay, conditions: 25 mg/L; protectant activity

SMILES	control effect against cucumber downy mildew (%)
Cc1nc(Cl)c(Cl)c(NCCc2ccc(Oc3ccccc3)nc2)n1 [III-2521]	100%

same assay, conditions: 50 mg/L; protectant activity

SMILES	control effect against cucumber downy mildew (%)
Cc1nc(Cl)c(Cl)c(NCCc2ccc(Oc3ccccc3)nc2)n1 [III-2521]	100%

same assay, conditions: 100 mg/L; protectant activity

SMILES	control effect against cucumber downy mildew (%)
Cc1nc(Cl)c(Cl)c(NCCc2ccc(Oc3ccccc3)nc2)n1 [III-2521]	100%

same assay, conditions: 400 mg/L; protectant activity

SMILES	control effect against cucumber downy mildew (%)
Cc1nc(Cl)c(Cl)c(NCCc2ccc(Oc3ccccc3)nc2)n1 [III-2521]	100%

same assay, conditions: 12.5 ppm

SMILES	protectant activity against cucumber downy mildew in vivo
Cc1nc(Cl)c(Cl)c(NCCc2ccc(Oc3ccccc3)nc2)n1 [III-2521]	100%

same assay, conditions: 25 ppm

SMILES	protectant activity against cucumber downy mildew in vivo
Cc1nc(Cl)c(Cl)c(NCCc2ccc(Oc3ccccc3)nc2)n1 [III-2521]	100%
Cc1nc(Cl)c(Cl)c(NCCc2ccc(Oc3cccc(Cl)c3)nc2)n1 [III-2526]	100%

same assay, conditions: 50 ppm

SMILES	protectant activity against cucumber downy mildew in vivo
Cc1nc(Cl)c(Cl)c(NCCc2ccc(Oc3ccccc3)nc2)n1 [III-2521]	100%
Cc1nc(Cl)c(Cl)c(NCCc2ccc(Oc3cccc(Cl)c3)nc2)n1 [III-2526]	100%

same assay, conditions: 100 ppm

SMILES	protectant activity against cucumber downy mildew in vivo
Cc1nc(Cl)c(Cl)c(NCCc2ccc(Oc3ccccc3)nc2)n1 [III-2521]	100%
Cc1nc(Cl)c(Cl)c(NCCc2ccc(Oc3cccc(Cl)c3)nc2)n1 [III-2526]	100%

same assay, conditions: 400 ppm

SMILES	protectant activity against cucumber downy mildew in vivo
CCOC(=O)c1ccc(Oc2ccc(CCNc3ncnc(C)c3Cl)cc2)nc1 [Compound I-35]	100%
Cc1ncnc(NCCc2ccc(Oc3ncc(C(F)(F)F)cc3Cl)cc2)c1Br [Compound I-1878]	100%
FC(F)c1ncnc(NCCc2ccc(Oc3ncc(Cl)cc3Cl)cc2)c1Cl [Compound I-2555]	100%
Cc1nc(Cl)c(Cl)c(NCCc2ccc(Oc3ccccc3)nc2)n1 [III-2521]	100%
Cc1nc(Cl)c(Cl)c(NCCc2ccc(Oc3cccc(Cl)c3)nc2)n1 [III-2526]	100%

same assay, conditions: Cucumis sativus, 168 h, read-out: protectant activity against cucumber downy mildew in vivo, 25 ppm

SMILES	pest or weed control at 25 ppm
CCc1nc(C)nc(NCCc2ccc(Oc3nc(Cl)c(Cl)cc3Cl)cc2)c1Cl [Compound I-6790]	80 to 99%

same assay, conditions: Cucumis sativus, 168 h, read-out: protectant activity against cucumber downy mildew in vivo, 50 ppm

SMILES	pest or weed control at 50 ppm
CCc1nc(C)nc(NCCc2ccc(Oc3nc(Cl)c(Cl)cc3Cl)cc2)c1Cl [Compound I-6790]	80 to 99%

same assay, conditions: Cucumis sativus, 168 h, read-out: protectant activity against cucumber downy mildew in vivo, 100 ppm

SMILES	pest or weed control at 100 ppm
CCc1nc(C)nc(NCCc2ccc(Oc3nc(Cl)c(Cl)cc3Cl)cc2)c1Cl [Compound I-6790]	80 to 99%

same assay, conditions: Cucumis sativus, 168 h, read-out: protectant activity against cucumber downy mildew in vivo, 400 ppm

SMILES	pest or weed control at 400 ppm
CCc1nc(C)nc(NCCc2ccc(Oc3nc(Cl)c(Cl)cc3Cl)cc2)c1Cl [Compound I-6790]	100%
